From PubChem BioAssay AID463229 (Broad Institute, 2010)
Values joined by “and” are separate entries in the source; they are usually repeats but may differ in a detail not shown here. Equal values may be shown once.

Tested on: INS-1E rat beta cells, no cytokines, CellTiter-Glo ATP, 48 h
Test: cytokine-free beta-cell viability effect – INS-1E rat cells, ATP luminescence, cherry pick, counter-screen for beta-cell apoptosis protection project, dose response (AID 463229)

## O=C(Nc1cccc(C(F)(F)F)c1)Nc1ccc(N2CCCC2)c(S(=O)(=O)Nc2ccccc2Cl)c1
  AC50: 4.27 µM

## Cc1nc(C)c(-c2csc(NCCc3ccccc3)n2)s1
  AC50: 24.1 µM

## COc1ccccc1N1CCN(Cc2cc(Br)c(O)c3ncccc23)CC1
  AC50: 5.72 µM

## COc1ccc(Nc2nc(N3CCCCC3)c3ccccc3n2)cc1
  AC50: 12 µM

## O=C(/C(=C/c1cccc(Cl)c1)c1nc2ccccc2[nH]1)c1ccccc1
  AC50: 4.36 µM

## O=[N+]([O-])c1ccc(O)c(/C=N/NC(=S)Nc2ccc(Cl)cc2Cl)c1
  AC50: 17.9 µM

## C/C(=N\NC(=O)c1nnn(-c2nonc2N)c1CN(C)c1ccccc1)c1ccccc1O
  AC50: 9.18 µM

## Cc1cccc2c(C(=O)N3CCN(c4ccccn4)CC3)cc(-c3cccc(Br)c3)nc12
  AC50: 3.08 µM

## COc1cccc(/C=N/NC(=O)c2c(-c3ccccc3)noc2C)c1O
  AC50: 8.09 µM

## Cc1cc(S(=O)(=O)NCc2ccncc2)c(C)cc1Br
  AC50: 6.19 µM

## C[N+]1=C(/C=C/Nc2ccccc2Cl)C(C)(C)c2ccccc21
  AC50: 12.2 µM

## Cc1sc2ncnc(NC3CCN(Cc4ccccc4)CC3)c2c1C
  AC50: 5.11 µM

## O=C(N/N=C(\c1ccccc1)c1ccccn1)c1ccccc1Cl
  AC50: 6.14 µM

## O=C1/C(=C/c2cccnc2)CCC/C1=C\c1cccnc1
  AC50: 6.89 µM

## COc1ccc(-c2nc(-c3ccccn3)no2)cc1
  AC50: 3.11 µM

## COc1ccc(/C(C)=N/Nc2nc(C)cc(-c3ccccc3)n2)cc1
  AC50: 9.59 µM

## O=C(Nc1ccc(-c2nc3ccccc3o2)cc1)c1ccc(N2CCOCC2)c([N+](=O)[O-])c1
  AC50: 5.65 µM

## COc1ccc(CNC(=O)c2c(C)oc3c2C(=O)c2ccccc2C3=O)cc1
  AC50: 7.42 µM

## CC(=O)c1ccc(NC(=S)NC(C)c2ccc(Cl)cc2Cl)cc1 (configuration not stated)
  AC50: 21.1 µM

## COc1ccc(CNCCc2c(C)[nH]c3ccc(OC(F)(F)F)cc23)c(OC)c1
  AC50: 6.6 µM

## c1ccc2c(CN3CCCCCC3)c[nH]c2c1
  AC50: 3.61 µM

## O=C(Nc1ccc(F)cc1)Nc1cc(OCC(F)(F)F)cc(OCC(F)(F)F)c1
  AC50: 2.25 µM

## Cc1ccc(S(=O)(=O)N2CCOCC2)cc1C(=O)Nc1nc(-c2ccccn2)cs1
  AC50: 7.77 µM

## O=C(N/N=C/c1cc([N+](=O)[O-])ccc1O)c1cccc2ccccc12
  AC50: 9.87 µM

## CCCN(CCC)C(=O)c1cc([N+](=O)[O-])cc2c1-c1ccc([N+](=O)[O-])cc1C2=C(C#N)C#N
  AC50: 14.2 µM

## C=C1C(O)[C@@H]2O[C@]3(CC[C@H](/C=C/C(C)[C@@H]4CC(C)=CC5(O[C@H](C[C@@](C)(O)C(=O)O)CCC5O)O4)O3)CC[C@H]2O[C@@H]1C(O)CC(C)[C@H]1OC2(CCCCO2)CCC1C (some centres not stated)
  AC50: < 0.195 µM

## CC(C)(C)n1nnnc1C(c1ccc(F)cc1)N(Cc1ccc(F)cc1)Cc1ccco1 (configuration not stated)
  AC50: 9.25 µM

## Cc1cc(NC2CCCCC2)nc(NCc2ccccc2)n1
  AC50: 3.71 µM

## Cc1cccnc1Nc1nc(-c2ccccn2)cs1
  AC50: 2.58 µM

## O=[N+]([O-])c1cccnc1N/N=C/c1ccccc1O
  AC50: 5.45 µM

## COc1cc(SC#N)ccc1N=Cc1c(C)[nH]n(-c2ccc(C)c(C)c2)c1=O
  AC50: 5.85 µM

## N#C/C(=N\Nc1cccc([N+](=O)[O-])c1)C(=O)c1ccc(Br)cc1
  AC50: 7.29 µM

## CCN(CC)CCOc1ccc2c(c1)C(=NO)c1cc(OCCN(CC)CC)ccc1-2
  AC50: 14.1 µM

## O=C(N/N=C/c1cc([N+](=O)[O-])ccc1O)c1cccc2cc[nH]c12
  AC50: 6.89 µM

## COc1ccc(-[n+]2c(C)cc(/C=C3\Sc4ccccc4N3C)cc2C)cc1
  AC50: < 0.195 µM

## COc1cccc(/C=N/NC(=O)C(=O)Nc2ccccc2OC(F)(F)C(F)F)c1O
  AC50: 6.44 µM

## COc1cccc(C(=O)Oc2c(Br)cc(Br)cc2/C=N/NC(=O)c2cc(C)[nH]n2)c1
  AC50: 7.17 µM

## COc1cc(CN2CCN(c3cc(C)ccc3C)CC2)ccc1O
  AC50: 7.21 µM

## CC1CCC(C(C)C)C(OC(=O)Cn2c(-c3ccc(Cl)cc3)[n+](C)c3ccccc32)C1 (configuration not stated)
  AC50: 3.83 µM

## O=C1C(Cl)=C(Nc2ccc3cn[nH]c3c2)C(=O)c2ccccc21
  AC50: 4.47 µM

## COc1ccc2nc(N=Nc3ccc(O)c4ccccc34)sc2c1
  AC50: 7.16 µM

## COc1ccc(-n2c(-c3ccc(Br)cc3)c[n+]3c2CCc2ccccc2-3)cc1
  AC50: 1.86 µM

## COc1cccc(COc2cc3ccccc3nc2C)c1
  AC50: 3.51 µM

## CCOc1ccc(N=Cc2c(C)[nH]n(-c3nc4ccccc4[nH]3)c2=O)cc1
  AC50: 2.83 µM

## O=C1N/C(=N/N=C/c2ccccc2O)SC1Cc1ccc(F)cc1 (configuration not stated)
  AC50: 14.6 µM

## N=c1c2c(-c3ccccc3)c(-c3ccccc3)n(Cc3ccco3)c2ncn1CCCN1CCOCC1
  AC50: 16.2 µM

## O=S(=O)(c1ccc(Cl)cc1)N1CCN(c2ncnc3sccc23)CC1
  AC50: 6.65 µM

## CCN1C/C(=C/c2ccc(OC)c(O)c2)C(=O)/C(=C/c2ccc(OC)c(O)c2)C1
  AC50: 4.92 µM

## CCc1c(C)nc2ncnn2c1NCCc1ccc(OC)cc1
  AC50: 6.85 µM

## C/C(=N\N1C(=O)c2ccccc2NC1c1ccccc1)c1ccccc1O (configuration not stated)
  AC50: 19.1 µM

## COc1ccccc1NC(=O)c1cc2cc(Br)ccc2cc1O
  AC50: 7.8 µM

## CCC1CCCCN1S(=O)(=O)c1ccc(NC(=O)c2nc(S(C)(=O)=O)ncc2Cl)cc1 (configuration not stated)
  AC50: 8.01 µM

## CCN(CC)CCNC(=O)c1ccc(NC(=O)c2cn(-c3ccccc3)nc2-c2cccs2)cc1
  AC50: 15.7 µM

## COc1ccc(C2NCCc3c2[nH]c2ccccc32)cc1COc1ccc(F)cc1 (configuration not stated)
  AC50: 14 µM

## COCCC1CCCCN1C(=O)c1cc(COc2ccc(-n3cncn3)cc2)on1 (configuration not stated)
  AC50: 6.35 µM

## CCCCCc1nc2c(c(=O)c3ccccc3n2C)c(=O)n1C1CCCCCC1
  AC50: 6.84 µM

## CC(NC(=S)NC1CCCCC1)c1ccc(C(C)(C)C)cc1 (configuration not stated)
  AC50: 11.2 µM

## Cc1ccc(C(=O)Nc2nc(-c3ccccn3)cs2)cc1S(=O)(=O)N1CCOCC1
  AC50: 6.47 µM

## CCOC(=O)c1cccc(-[n+]2c(-c3ccccc3)cc(-c3ccccc3)cc2-c2ccccc2)c1
  AC50: 3.59 µM

## CCN(CC)CCOC(=O)c1ccc(N/C=C(/C#N)c2nc(-c3ccc4c(c3)OCO4)cs2)cc1
  AC50: 14.2 µM

## Cc1nn(C)c(C)c1CN(Cc1nc(CCC(C)C)no1)C(C)C
  AC50: 4.22 µM

## Cn1cc(/C=C/c2cc[n+](C)cc2)c2cc(Cl)ccc21
  AC50: 4.85 µM

## COc1ccc(-c2c[n+]3c4n2CCCCC4=C(c2ccc(Br)cc2)C3)cc1
  AC50: 3.14 µM

## CC[C@]1(c2ccccc2OC)ON(c2ccccc2C(F)(F)F)C1=O
  AC50: 4.55 µM

## CN(C)CCCn1cnc2c(c1=N)C(c1ccccc1)c1ccc3ccccc3c1O2 (configuration not stated)
  AC50: 7.08 µM

## Cn1nc(C(C)(C)C)cc1C(=O)NCc1cc(F)cc2c1OCOC2
  AC50: 5.86 µM

## C/C(=N\NC(=O)c1ccc(Cl)cc1)c1ccccn1
  AC50: 1.62 µM

## CCCCCCC(=O)N1C/C=C\C(c2ccc(OC)cc2)N(Cc2ccc(F)cc2)C(=O)[C@H]1Cc1ccccc1 (some centres not stated)
  AC50: 5.73 µM

## CCn1cc(C(=O)O)c(=O)c2cc(F)c(N/N=C/c3ccccc3[N+](=O)[O-])cc21
  AC50: 7.62 µM

## COc1cccc(/C=N/Nc2cc(N3CCOCC3)ncn2)c1O
  AC50: 14.2 µM

## O=[N+]([O-])c1ccc(NC(=S)NCCc2ccc(F)cc2)cc1
  AC50: 7.46 µM

## Oc1ccc(/C=N/Nc2ncc(Br)cn2)c(O)c1
  AC50: 3.83 µM

## Oc1ccc(CNc2ccccc2)c2cccnc12
  AC50: 22.8 µM

## COc1ccc(CCNC(=O)c2cc3c(=O)n4cccc(C)c4nc3n(Cc3ccco3)c2=N)cc1OC
  AC50: 9.18 µM

## C[C@H]1CCC/C=C/[C@@H]2C[C@H](O)C[C@H]2[C@H](O)/C=C/C(=O)O1
  AC50: 0.948 µM and 1 µM

## COc1ccc(C)cc1Nc1n[n+](-c2ccccc2)c(-c2c(Cl)cccc2Cl)s1
  AC50: 4.15 µM

## CCc1ccc(OCC(=O)NC(NC(=S)Nc2ccc(C)cc2C)C(Cl)(Cl)Cl)cc1 (configuration not stated)
  AC50: 11.2 µM
